Patent US9233164B2, “Water soluble fullerene formulations and methods of use thereof” (BOARD OF REGENTS OF THE UNIVERSITY OF NEBRASKA, priority 2011, dated 2016)

Tested on: superoxide
Assay: Cell-free superoxide scavenging by EPR spectroscopy (HX+XO or FMN source, CMH spin probe)
Format: biochemical
Conditions: 400 U/ml SOD1
Description: The ability of C60-polymer complexes to scavenge superoxide was measured by EPR spectroscopy, as reported (Rosenbaugh et al. (2010) Biomaterials 31:5218-26). Briefly, superoxide generated by HX—XO or a photosensitizer, FMN, was detected using the CMH spin probe. Samples contained 0.025 mM DF and 0.005 mM DETC buffer (pH 7.4), 0.025 mM CMH, 0.025 mM HX and 10 mU XO (or 0.02 mM FMN instead of HX—XO) and C60-polymer complexes at different concentrations. After complete mixing, each sample was incubated at r.t. for 5 minutes and 50 μl of the sample was loaded into a glass capillary, which was then inserted into the capillary holder of the EPR spectrometer. The CMH radical signal was recorded and EPR spectrum amplitude was quantified.

Substance: superoxide dismutase [SOD1]
- Effect on EPR spectrum: completely abolished the EPR spectrum
